Measurements reported in patent US11780849B2, “Imino sulfanone inhibitors of ENPP1” (Volastra Therapeutics, Inc., priority 2020, dated 2023).
Read-outs that look alike come from different tables or passages of the source.

What was measured:
ENPP-1 ECD [1] = target: T1, ENPP-1 ECD (Homo sapiens (Human), UniProt P22413); experiment: Assay 1: inhibition of ENPP1 hydrolysis of 2′,3′-cGAMP (AMP-Glo, […] enzyme)
Experimental: Assay 1: Test compounds were plated in a 3× dilution scheme in a 384 well plate. […] AMP Detection solution (100 μL) was added to each well, the plate centrifuged and incubated for 60 min.

ENPP-1 ECD [2] = target: T1, ENPP-1 ECD; experiment: Assay 2: inhibition of ENPP1 hydrolysis of 2′,3′-cGAMP (AMP-Glo, […] enzyme)
Experimental: Assay 2: Compared to the conditions in Assay 1, this assay has a larger dynamic range and ensures the system is under steady-state conditions by reducing the enzyme concentration in the assay.
Test compounds were plated in a 3× dilution scheme in a 384 well plate. […] AMP Detection solution (10 μL) was added to each well, the plate centrifuged and incubated for 60 min.

[3] = target: ENPP1 on MDA-MB-231 cells (Homo sapiens (Human), UniProt P22413); experiment: Assay 3: inhibition of ENPP1 hydrolysis of AMP p-nitrophenyl ester on MDA-MB-231 cells
Chain of ENPP1 on MDA-MB-231 cells (P22413 whole entry): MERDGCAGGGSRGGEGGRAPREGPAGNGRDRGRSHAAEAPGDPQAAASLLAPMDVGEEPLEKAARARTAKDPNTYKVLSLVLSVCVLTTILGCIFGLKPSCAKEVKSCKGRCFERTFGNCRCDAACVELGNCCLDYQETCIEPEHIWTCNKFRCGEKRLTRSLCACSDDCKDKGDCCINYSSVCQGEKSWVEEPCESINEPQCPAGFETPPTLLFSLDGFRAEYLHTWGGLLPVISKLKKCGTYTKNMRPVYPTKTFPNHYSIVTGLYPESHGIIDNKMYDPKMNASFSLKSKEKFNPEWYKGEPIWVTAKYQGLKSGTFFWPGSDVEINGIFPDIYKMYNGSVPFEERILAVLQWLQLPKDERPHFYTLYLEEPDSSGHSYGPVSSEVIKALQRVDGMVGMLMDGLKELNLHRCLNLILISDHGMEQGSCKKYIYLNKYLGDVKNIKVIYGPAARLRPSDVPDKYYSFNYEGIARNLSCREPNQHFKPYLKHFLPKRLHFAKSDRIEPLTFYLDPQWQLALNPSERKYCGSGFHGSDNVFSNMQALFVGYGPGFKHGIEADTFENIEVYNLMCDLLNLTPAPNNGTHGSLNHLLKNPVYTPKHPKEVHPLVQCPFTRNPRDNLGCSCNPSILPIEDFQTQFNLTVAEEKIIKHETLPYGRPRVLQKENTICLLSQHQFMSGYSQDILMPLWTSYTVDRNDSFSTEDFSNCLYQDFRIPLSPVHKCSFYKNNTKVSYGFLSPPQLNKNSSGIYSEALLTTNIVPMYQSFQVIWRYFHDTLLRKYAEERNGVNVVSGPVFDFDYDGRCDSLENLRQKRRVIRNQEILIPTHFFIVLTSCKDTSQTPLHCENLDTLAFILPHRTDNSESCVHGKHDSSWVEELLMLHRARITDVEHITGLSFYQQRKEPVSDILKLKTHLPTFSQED
Experimental: Hydrolysis of the p-nitrophenyl ester of AMP (pNP-AMP), an isostere of ATP, is selectively catalyzed by ENPP1 in the supernatant of MDA-MB-231 cell cultures. Inhibition of the hydrolysis of pNP-AMP by MDA-MB-231 at pH 7.4 and 37° C., is a good model of physiologically relevant activity of membrane-bound ENPP1 at disease-relevant expression levels.
MDA-MB-231 cells were harvested using TypLE Express Enzyme digestion and suspended in 100 μL of Leibovitz's L-15 Medium, 20% FBS, seeding the cells in a 96-well assay plate with 4.5×10^4 cells/well. Cells were incubated at 37° C. with 1% CO2 for 24 h. In a separate dilution plate, 2× of top dose of compound was prepared in phenol-red free 1640 medium without FBS and then 1:3 serial diluted in the same medium. The cell culture medium of L15 medium was aspirated carefully and cells were washed with PBS once, and 50 μL per well of test compound or DMSO blank were added to the assay plate. Substrate mix (50 μL; 0.5 mM pNP-AMP in phenol-red free 1640 media without FBS) was added for a pNP-AMP final concentration of 0.25 mM. The system was incubated at 37° C. for 3 h.

[4] = read-out: Assay 1 (IC50), ENPP1 hydrolysis of 2′,3′-cGAMP, AMP-Glo
[5] = read-out: Assay 1 (IC50), inhibition of ENPP1 hydrolysis of 2′,3′-cGAMP, no unit in Table 18 (Table 17 legend for this assay uses nM)
[6] = read-out: Assay 2 (KI), ENPP1 hydrolysis of 2′,3′-cGAMP, AMP-Glo, […] ENPP-1, 24 μM cGAMP
[7] = read-out: Assay 2 (KI), inhibition of ENPP1 hydrolysis of 2′,3′-cGAMP, no unit in Table 18 (Table 17 legend for this assay uses nM)
[8] = read-out: Assay 3 (KI, app), apparent KI from IC50 via Cheng/Prusoff, pNP-AMP […], MDA-MB-231 cells, pH 7.4, 37° C., 3 h, unit inferred
[9] = Assay 1 (IC50), inhibition of ENPP1 hydrolysis of 2′,3′-cGAMP, no unit in Table 18 (Table 17 legend for this assay uses nM)
[10] = Assay 2 (KI), ENPP1 hydrolysis of 2′,3′-cGAMP, AMP-Glo, […] ENPP-1, 24 μM cGAMP
[11] = Assay 2 (KI), inhibition of ENPP1 hydrolysis of 2′,3′-cGAMP, no unit in Table 18 (Table 17 legend for this assay uses nM)
[12] = IC50 in Assay 1, […] ENPP-1 ECD, 24 μM 2,3-cGAMP, pH 8.0
[13] = Assay 1 (IC50), ENPP1 hydrolysis of 2′,3′-cGAMP, AMP-Glo

T1 sequence (P22413 98-925): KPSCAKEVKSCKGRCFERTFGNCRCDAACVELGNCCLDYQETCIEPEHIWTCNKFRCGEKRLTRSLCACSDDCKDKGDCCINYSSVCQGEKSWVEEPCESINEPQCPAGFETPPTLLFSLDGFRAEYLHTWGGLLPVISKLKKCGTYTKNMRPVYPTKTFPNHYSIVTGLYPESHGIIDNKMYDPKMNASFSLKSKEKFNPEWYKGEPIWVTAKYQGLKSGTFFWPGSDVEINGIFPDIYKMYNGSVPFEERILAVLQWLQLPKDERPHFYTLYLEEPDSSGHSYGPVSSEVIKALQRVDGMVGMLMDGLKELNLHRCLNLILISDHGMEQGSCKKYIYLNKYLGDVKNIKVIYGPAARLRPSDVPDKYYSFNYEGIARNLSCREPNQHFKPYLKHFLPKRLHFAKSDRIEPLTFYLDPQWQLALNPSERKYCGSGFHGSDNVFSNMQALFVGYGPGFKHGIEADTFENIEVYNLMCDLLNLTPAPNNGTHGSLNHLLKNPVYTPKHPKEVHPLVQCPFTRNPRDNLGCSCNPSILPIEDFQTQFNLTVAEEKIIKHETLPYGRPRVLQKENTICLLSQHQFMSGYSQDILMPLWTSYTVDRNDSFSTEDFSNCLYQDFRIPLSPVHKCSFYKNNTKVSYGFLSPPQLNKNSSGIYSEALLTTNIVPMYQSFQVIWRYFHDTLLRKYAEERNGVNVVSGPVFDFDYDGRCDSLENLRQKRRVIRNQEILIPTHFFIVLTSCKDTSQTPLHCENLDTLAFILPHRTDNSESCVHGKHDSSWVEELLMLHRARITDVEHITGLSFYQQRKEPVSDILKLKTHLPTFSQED

| Structure (SMILES) | IC50 (ENPP-1 ECD [1]; [4]) [nM] | IC50 (ENPP-1 ECD [1]; [5]) [nM] | Ki (ENPP-1 ECD [2]; [6]) [nM] | Ki (ENPP-1 ECD [2]; [7]) [nM] | Ki [3, 8] [nM] | IC50 (ENPP-1 ECD [1]; [9]) [nM] | Ki (ENPP-1 ECD [2]; [10]) [nM] | Ki (ENPP-1 ECD [2]; [11]) [nM] | Ki [3] [nM] | IC50 (ENPP-1 ECD [1]; [12]) [nM] | Ki (ENPP-1 ECD [1]) [nM] | IC50 (ENPP-1 ECD [1]; [13]) [nM] |
| --- | --- | --- | --- | --- | --- | --- | --- | --- | --- | --- | --- | --- |
| CC[S@](=N)(=O)c1ccc(Oc2ccnc3cc(OC)ccc23)cc1 [Compound 103b] | < 10 | 2.2 | < 3 | 0.31 | 30 | – | – | – | – | – | – | – |
| COc1ccc2c(N3CCC4(CC3)CCN([S@](C)(=N)=O)C4)ccnc2c1 [Compound 55a] | < 10 | 0.76 | < 3 | 0.09 | 8.7 | – | – | – | – | – | – | – |
| COc1cc2nccc(Oc3ccc([S@](C)(=N)=O)cc3)c2cc1F [Compound 114a] | < 10 | 0.94 | < 3 | 0.088 | 6.3 | – | – | – | – | – | – | – |
| COc1cc2nccc(Oc3ccc(S(C)(=N)=O)cc3)c2cc1F (stereo not shown) [Compound 114, {4-[(6-fluoro-7-methoxyquinolin-4-yl)oxy]phenyl}(imino)methyl-λ^6-sulfanone] | – | – | – | – | – | 2.8 | < 3 | 0.27 | 19 | – | – | – |
| COc1ccc2c(Oc3ccc(S(C)(=N)=O)cc3)ccnc2c1 (stereo not shown) [Compound 80, imino(4-((7-methoxyquinolin-4-yl)oxy)phenyl)(methyl)-λ^6-sulfanone] | < 10 | – | – | – | – | 6.2 | < 3 | 1.1 | 29 | 1.4 | – | – |
| COc1ccc2c(Oc3ccc([S@@](=N)(=O)C4CC4)cc3)ccnc2c1 [Compound 60a] | < 10 | 1.3 | < 3 | 0.099 | 11 | – | – | – | – | – | – | – |
| COc1cc2nccc(Oc3ccc(S(C)(=N)=O)cc3)c2cc1OC (stereo not shown) [Compound 1, (4-((6,7-dimethoxyquinolin-4-yl)oxy)phenyl)(imino)(methyl)-λ^6-sulfanone] | – | – | – | – | – | 17 | 3 to 300 | 3.5 | 61 | 17 | 5.1 | 10 to 1000 |
| COc1cc2ncnc(-c3ccc4c(c3)CN(S(C)(=N)=O)CC4)c2cc1OC (stereo not shown) [Compound 37, 6,7-dimethoxy-4-(2-(S-methylsulfonimidoyl)-1,2,3,4-tetrahydroisoquinolin-7-yl)quinazoline] | < 10 | – | – | – | – | 2.9 | < 3 | 0.41 | 28 | – | – | – |
| COc1ccc2c(N3CCC4(CC3)CCN(S(C)(=N)=O)C4)ccnc2c1 (stereo not shown) [Compound 55, 8-(7-methoxyquinolin-4-yl)-2-(S-methylsulfonimidoyl)-2,8-diazaspiro[4.5]decane] | < 10 | – | – | – | – | 2 | < 3 | 0.14 | 25 | – | – | – |
| COc1ccc2c(Oc3ccc([S@@](C)(=N)=O)cc3)ccnc2c1 [Compound 80a] | < 10 | 2.2 | < 3 | 0.26 | 13 | – | – | – | – | – | – | – |
| COc1cccc2c(N3CCC(CCS(C)(=N)=O)CC3)ncnc12 (stereo not shown) [Compound 72, imino({2-[1-(8-methoxyquinazolin-4-yl)piperidin-4-yl]ethyl})methyl-λ^6-sulfanone] | – | – | – | – | – | 120 | 3 to 300 | 18 | 430 | – | – | 10 to 1000 |
| COc1cc2ncnc(N3CCC4(CC3)CCN([S@@](C)(=N)=O)C4)c2cc1OC [Compound 54a] | < 10 | 0.34 | < 3 | 0.0075 | 0.32 | – | – | – | – | – | – | – |
| COc1ccc2c(Oc3ccc(S(C)(=N)=O)cc3F)ccnc2c1 (stereo not shown) [Compound 12, (3-fluoro-4-((7-methoxyquinolin-4-yl)oxy)phenyl)(imino)(methyl)-λ^6-sulfanone] | – | – | – | – | – | 30 | 3 to 300 | 8.6 | 190 | – | – | 10 to 1000 |
| COc1cc2ncc(C#N)c(Oc3ccc([S@@](C)(=N)=O)cc3)c2cc1F [Compound 44a] | 10 to 1000 | 11 | < 3 | 1 | 110 | – | – | – | – | – | – | – |
| COc1cccc2c(N3CCC(CCS(C)(=N)=O)CC3)c(C#N)cnc12 (stereo not shown) [Compound 57, 8-methoxy-4-(4-(2-(S-methylsulfonimidoyl)ethyl)piperidin-1-yl)quinoline-3-carbonitrile] | – | – | – | – | – | 31 | 3 to 300 | 5.3 | 120 | – | – | 10 to 1000 |
| CCS(=N)(=O)c1ccc(Oc2ccnc3cc(OC)ccc23)cc1 (stereo not shown) [Compound 103, ethyl(imino)(4-((7-methoxyquinolin-4-yl)oxy)phenyl)-λ^6-sulfanone] | < 10 | – | – | – | – | 9 | < 3 | 1.3 | 49 | – | – | – |
| COc1cc2ncnc(N3CCC(CNS(C)(=N)=O)CC3)c2cc1OC (stereo not shown) [Compound 94, N-((1-(6,7-dimethoxyquinazolin-4-yl)piperidin-4-yl)methyl)methanesulfonimidamide] | < 10 | – | – | – | – | 6.6 | < 3 | 1.3 | 83 | – | – | – |
| COc1cc2ncnc(N3CCC4(CC3)CCN(S(C)(=N)=O)C4)c2cc1OC (stereo not shown) [Compound 54, [8-(6,7-dimethoxyquinazolin-4-yl)-2,8-diazaspiro[4.5]decan-2-yl](imino)methyl-λ^6-sulfanone] | – | – | – | – | – | 0.71 | < 3 | 0.014 | 0.88 | – | – | – |
| COc1cc2nccc(Oc3ccc([S@@](=N)(=O)C4CC4)cc3)c2cc1F [Compound 120a] | < 10 | 0.46 | < 3 | 0.05 | 6.5 | – | – | – | – | – | – | – |
| COc1ccc2c(-c3ccc4c(c3)CN(S(C)(=N)=O)CC4)ccnc2c1 (stereo not shown) [Compound 52, 7-methoxy-4-(2-(S-methylsulfonimidoyl)-1,2,3,4-tetrahydroisoquinolin-7-yl)quinoline] | – | – | – | – | – | 35 | 3 to 300 | 6.3 | 280 | – | – | 10 to 1000 |

Continued, values first:

| IC50 (ENPP-1 ECD [1]; [4]) [nM] | IC50 (ENPP-1 ECD [1]; [5]) [nM] | Ki (ENPP-1 ECD [2]; [6]) [nM] | Ki (ENPP-1 ECD [2]; [7]) [nM] | Ki [3, 8] [nM] | IC50 (ENPP-1 ECD [1]; [9]) [nM] | Ki (ENPP-1 ECD [2]; [10]) [nM] | Ki (ENPP-1 ECD [2]; [11]) [nM] | Ki [3] [nM] | IC50 (ENPP-1 ECD [1]; [12]) [nM] | Ki (ENPP-1 ECD [1]) [nM] | IC50 (ENPP-1 ECD [1]; [13]) [nM] | Structure (SMILES) |
| --- | --- | --- | --- | --- | --- | --- | --- | --- | --- | --- | --- | --- |
| – | – | – | – | – | – | – | – | 23 | 11 | – | – | COc1cc2ncnc(-c3ccc4c(c3)CN(S(N)(=O)=O)CC4)c2cc1OC [reference compound] |
| – | – | – | – | – | 37 | 3 to 300 | 4.6 | 140 | – | – | 10 to 1000 | COc1cc2nccc(OCc3ccc(S(C)(=N)=O)cc3)c2cc1OC (stereo not shown) [Compound 138, (4-{[(6,7-dimethoxyquinolin-4-yl)oxy]methyl}phenyl)(imino)methyl-λ^6-sulfanone] |
| < 10 | 0.5 | < 3 | 0.055 | 4.1 | – | – | – | – | – | – | – | COc1ccc2c(OCc3cccc([S@@](C)(=N)=O)c3)ccnc2c1 [Compound 133a] |
| – | – | – | – | – | 1.4 | < 3 | 0.12 | 13 | – | – | – | COc1ccc2c(OCc3cccc(S(C)(=N)=O)c3)ccnc2c1 (stereo not shown) [Compound 133, imino(3-{[(7-methoxyquinolin-4-yl)oxy]methyl}phenyl)methyl-λ^6-sulfanone] |
| < 10 | – | – | – | – | 2.4 | < 3 | 0.41 | 26 | – | – | – | COc1cc2ncc(C#N)c(N3CCC(CCS(C)(=N)=O)CC3)c2cc1Cl (stereo not shown) [Compound 152, 6-chloro-4-(4-{2-[imino(methyl)oxo-λ6-sulfanyl]ethyl}piperidin-1-yl)-7-methoxyquinoline-3-carbonitrile] |
| – | – | – | – | – | 2.1 | < 3 | 0.25 | 16 | – | – | – | COc1cc2nccc(N3CCC(CCS(C)(=N)=O)CC3)c2cc1Cl (stereo not shown) [Compound 141, {2-[1-(6-chloro-7-methoxyquinolin-4-yl)piperidin-4-yl]ethyl}(imino)methyl-λ^6-sulfanone] |
| – | – | – | – | – | 1.3 | < 3 | 0.051 | 3.7 | 1.3 | – | – | COc1cc2nccc(-c3ccc4c(c3)CN(S(C)(=N)=O)CC4)c2cc1OC (stereo not shown) [Compound 161, [7-(6,7-dimethoxyquinolin-4-yl)-1,2,3,4-tetrahydroisoquinolin-2-yl](imino)methyl-λ^6-sulfanone] |
| – | – | – | – | – | 8.6 | < 3 | 1.3 | 62 | – | – | – | COc1cc2nccc(N3CCC(CCS(C)(=N)=O)CC3)c2cc1F (stereo not shown) [Compound 150, {2-[1-(6-fluoro-7-methoxyquinolin-4-yl)piperidin-4-yl]ethyl}(imino)methyl-λ^6-sulfanone] |
| – | – | – | – | – | – | – | 0.018 | 0.51 | – | – | – | COc1cc2ncc(F)c(N3CCC4(CC3)CCN(S(C)(=N)=O)C4)c2cc1OC (stereo not shown) [Compound 227, [8-(3-fluoro-6,7-dimethoxyquinolin-4-yl)-2,8-diazaspiro[4.5]decan-2-yl](imino)methyl-λ^6-sulfanone] |
| – | – | – | – | – | – | – | 0.29 | 8 | – | – | – | COc1cccc2c(N3CC4(CCN(S(C)(=N)=O)C4)C3)ncnc12 (stereo not shown) [Compound 217, imino[2-(8-methoxyquinazolin-4-yl)-2,6-diazaspiro[3.4]octan-6-yl]methyl-λ^6-sulfanone] |
